Data on eleven compounds can be found in patent publication US20010053777A1, “Drug treatment for restless leg syndrome” (priority 1999, published 2001).

In data set [1] the test system is patients with RLS. The data set is described as follows: Treatment of 2 patients with RLS: therapeutic history, monotherapy trials and combination therapy. In kind it is in vivo, human. The following applies: for side effects: dose-limiting or intolerable. As to the method: 2 patients with RLS (person and person) were treated with a combination therapy of pramipexole and clonidine.
The clonidine was also initially prescribed in a single dose of 0.075 mg two hours before bedtime and increased by 0.075 mg at intervals of 3 days.
2. Treatment with a combination therapy of clonidine and pramipexole After slowly bringing the clonidine therapy to a complete halt and after a treatment-free period of about 1 week, both patients were treated with a combination of 0.088 mg of pramipexole and 0.075 mg of clonidine. […] After 7 days the dosage of pramipexole had been increased to 0.18 mg and the dosage of clonidine to 0.15 mg, two hours before going to nd sleep.

Data set [2] has as its system Restless Leg Syndrome (RLS) patients. The conditions noted are these: cited from earlier work; for relief from the complaint: a few partly open trials or long-term therapy; for effectiveness in RLS: short-term therapy trials or trials cited in the background.
[3] abbreviates: 0.225 mg (male) / 0.45 mg (female) single dose before bedtime.
Where [4] appears, read: 2 RLS patients, previous therapy or monotherapy.

Turning to `Cc1nnc2n1-c1sc(Br)cc1C(c1ccccc1Cl)=NC2` [Brotizolam], in data set [1] (2 RLS patients, previous therapy), the “falling asleep and sleeping through” value is listed as “improved”. As to `NC(=O)N1c2ccccc2C=Cc2ccccc21` [Carbamazepine], in data set [2], the “relief from the complaint” value is recorded as “only partial relief”. In the case of `N[C@@H](Cc1ccc(O)c(O)c1)C(=O)O` [L-DOPA], in data set [1] (both RLS patients, previous therapy, disappeared on switch to a dopamine agonist), the augmentation under therapy entry is reported as “typical augmentation during the day”. The “relief from the complaint” value in data set [2] is reported as “significant alleviation of the complaint”.

Regarding `CC(C)C[C@H]1C(=O)N2CCC[C@H]2[C@]2(O)O[C@](NC(=O)[C@@H]3C[C@@H]4c5cccc6[nH]cc(c56)C[C@H]4N(C)C3)(C(C)C)C(=O)N12` [alpha-dihydroergocryptine], the “effectiveness in RLS” value in data set [2] was “effective”. Turning to `C=CCN1C[C@H](C(=O)N(CCCN(C)C)C(=O)NCC)C[C@@H]2c3cccc4[nH]cc(c34)C[C@H]21` [cabergoline], the “effectiveness in RLS” value in data set [2] is reported as “effective”. Take `Clc1cccc(Cl)c1NC1=NCCN1` [clonidine, 2-(2,6-dichloroanilino)-4,5-dihydroimidazole]: in data set [1] (setting [3]), the compulsive movements result is recorded as “improved”; the paresthesia felt entry was “hardly any”; the “quality of sleep and number of times they woke during the night” value is recorded as “not changed”. For the same compound, the side effects entry in data set [1] (setting [4]) is “dry mouth, dizziness and constipation”. Moreover, the “perceived symptoms such as paresthesia, compulsive movement and tiredness during the day” value in data set [2] (daily doses 0.1-0.9 mg, 4 open trials, 2 double-blind placebo-controlled trials, a single case study) is on record as “(statistically significant) reduction”. For the same compound, the “sleep latency (polysomnographic)” value in data set [2] (daily doses 0.1-0.9 mg) is “shortened”. The “quality of sleep, frequency of waking or periodic leg movements in sleep (PLMS)” value in data set [2] (daily doses 0.1-0.9 mg, polysomnographic) is given as “not affected”. `CCN(CC)C(=O)N[C@H]1C=C2c3cccc4[nH]cc(c34)C[C@H]2N(C)C1` [lisuride]: in data set [2], the “effectiveness in RLS” value is “effective”. For `CCCN1C[C@H](CSC)C[C@@H]2c3cccc4[nH]cc(c34)C[C@H]21` [pergolide], in data set [1] (setting [4]), the side effects result is “nausea, gastrointestinal problems and dizziness”. The “effectiveness in RLS” value in data set [2] was “effective”. `CCCN[C@H]1CCc2nc(N)sc2C1` [pramipexole, (S)-2-amino-6-n-propylamino-4,5,6,7-tetrahydro-benzothiazole]: the “RLS symptoms (discomfort, cramps and pains in the legs, compulsive movement, sleep problems, daytime tiredness)” value in data set [1] (setting [4]) is given as “certainly improved”. Besides, the “difference from earlier therapy” value in data set [1] (pramipexole 0.36 mg (male) / 0.27 mg (female) daily, two hours before bedtime) is “did not report any difference”. Also, the “effectiveness in RLS” value in data set [2] is recorded as “effective”.

With `CCCN(CCC)CCc1cccc2c1CC(=O)N2` [ropinirol], the “effectiveness in RLS” value in data set [2] is given as “effective”.

On to bromocryptine, for which, in data set [2], the “effectiveness in RLS” value was “effective”.
